# “Also recorded” adds a separate entry of the source.
# Columns and labels:
# PA-1 [1] = test: Cell growth inhibition, PA-1 ovarian tumor cells; format: cell-based; settings: Homo sapiens, PA-1, 72 h, PA-1 (ovary); 3 d exposure; cell number
# Description: (§1) One ml of this cell suspension was added to each well of a 12 well cell culture plate that contained 3 ml of appropriate media plus serum. […] Control wells received 40 μl of 5% Kollidon 17PF alone. Seventy-two hours later, all cells were harvested by trypsinization and cell number determined electronically using a Coulter Model Z1 particle counter (Coulter Corp., Miami, Fla.) to assess cell growth inhibition. Each experiment was performed in duplicate and repeated a minimum of three times.
# (§2) Cells were seeded at a density of 1-5×10^4 cells in each well of a 6 well tissue culture flask. […] After three days, cells were harvested by trypsinization and cell number determined electronically. Cell growth inhibition was determined by comparison to non-Taurolidine exposed control cultures. The IC50 was calculated as the concentration required to inhibit cell number by 50%.
# PA-1 [2] = test: Flow cytometry cell cycle distribution / DNA debris, PA-1; format: cell-based, human
# Description: Three×10^5 cells were seeded in plastic tissue culture flasks. […] Control cultures received an appropriate volume of Kollidine-17P. […] The percentage of DNA debris in the sub-G0/G1 region was assessed using cytofluorometric techniques.
# For flow cytometry studies, 1×10^6 PA-1, SKOV-3, or NIH-3T3 cells were incubated for 24 h in appropriate media containing serum. […] Control cultures for each cell line were incubated in media containing 40 μl of 5% Kollidon 17PF alone. Forty-eight hours later, all cells were harvested by trypsinization and prepared for cytofluorometric analysis by standard methods. For example, harvested cells were resuspended in ice cold phosphate-buffered saline at a final cell density of 2×10^6 cells/ml. The cells then were stained for 30 min at room temperature in the dark with a solution of 0.05 mg/ml propidium iodide, 0.6% Igepal, and 1% sodium citrate. Flow cytometry was performed by FACScan (Becton Dickinson, Plymouth, England) using the ModFit LT program (Becton Dickinson). Statistical analysis was performed with the Kruskal Wallis non-parametric ANOVA test followed by Dunn's multiple comparisons test using Instat.
# Three×10^5 cells were seeded in plastic tissue culture flasks. […] Control cultures received an appropriate volume of Kollidine-17P. After an additional 48 h, cells were harvested, stained with propidium iodide, and cell cycle distribution assessed using cytofluorometric techniques. Each value represents the percentage of cells in the noted cell cycle phases and is the mean±SEM of three determinations.
# SKOV-3 = test: Annexin-V FITC binding (phosphotidylserine externalization), SKOV-3; format: cell-based, human; settings: 24 h exposure
# Description: Three×10^5 cells were seeded in plastic tissue culture flasks. […] Control cultures received an appropriate volume of Kollidine-17P. After an additional 24 h, cells were harvested and phosphotidylserine externalization determined by assessing Annexin-V FITC binding using cytofluorometric techniques. Each bar represents the mean±SE of four determinations. **p≦0.01, ***p≦0.001
# Cell membrane phosphotidylserine externalization, as a reflection of the potential induction of apoptosis, was assessed by flow cytometry methods using the ApoAlert® Annexin-V/FITC assay kit. Briefly, 1×10^6 cells were incubated for 24 h in tissue culture medium containing serum. […] Control cultures received 5% Kollidon 17PF alone. Twenty-four hours later, all cells were harvested by trypsinization. The harvested cells were resuspended in 200 μl of binding buffer and then incubated for 5-15 min in a solution containing 1 μg/ml Annexin-V FITC at room temperature in the dark. The cells were then analyzed to quantitate Annexin-V binding by cytofluorometric techniques that utilized FACScan using the ModFit LT program with statistical analysis as described above.
# PARP = test: Western-blot analysis of PARP cleavage, SKOV-3 cells; format: cell-based, human; settings: 24 h exposure to 50 or 100 μM
# Description: Two×10^6 cells were seeded in 150 cm^2 tissue culture flasks. […] After an additional twenty-four hours, cells were harvested, cell number determined, and aliquots derived from equal cell numbers generated from each exposure condition. Total proteins from these whole cell lysates were separated by SDS-PAGE and transferred to nitrocellulose filters. Filters were then immunoblotted to detect intact PARP protein and cleavage fragments by using the clone C-2-10 mouse monoclonal anti-PARP antibody (Zymed Laboratories, San Francisco, Calif.). The resulting protein-antibody complexes were visualized by chemiluminescence techniques.
# Western-blot analysis was used to assess of PARP cleavage. Two×10^6 cells were seeded into separate 75 cm^2 tissue culture flasks containing 20 ml of tissue culture media plus serum. […] Twenty-four hours after the addition of Taurolidine, cells were harvested, cell number determined, and aliquots containing an equal cell number were generated from each exposure condition. Total proteins from whole cell lysates generated from these aliquots were separated by SDS-PAGE and electrotransferred to nitrocellulose filters. Filters were then processed to detect intact PARP protein and cleavage fragments by using the clone C-2-10 mouse monoclonal anti-PARP antibody (Zymed Laboratories, San Francisco, Calif.). […]
# [3] = test system: SKOV-3 human ovarian tumor xenografts; test: i.p. SKOV-3 human ovarian tumor xenografts in female nude mice; format: in vivo
# Description: Fourteen days following the final Taurolidine injection, mice in all groups were sacrificed and the peritoneal cavity examined for the presence of tumors. Each experimental was repeated three times and the pooled number of animals in each group ranged from 15-21.
# Fourteen days following the final Taurolidine injection, mice in all groups were sacrificed, i.p. ovarian tumor xenografts removed and tumor weighed. Each experiment was repeated three times and the pooled number of animals in each group ranged from 15-21. Each bar represents the mean (±SE) tumor weight of 15-21 animals. ***p≦0.001, ****p≦0.0001.
# To evaluate therapeutic effectiveness, mice received a single intraperitoneal injection of 5×10^6 SKOV-3 cells in a volume of 0.5 ml. Immediately thereafter, mice were randomly divided into treatment groups of 7 animals. […] Control animals received 1 ml injections of 5% Kollidon 17PF alone. Animals were examined daily and body weight recorded twice weekly. […] The mean tumor weight for each treatment group was calculated and statistical analysis of differences in the mean tumor weight between treatment groups employed the Student's t-test. p-values of ≦0.05 were considered significant.
# [4] = test system: human and murine tumor cell lines; test: Growth inhibition, panel of selected human and murine tumor cell lines; format: cell-based; settings: 72 h; 3 d exposure; panel of 12 selected human and murine tumor cell lines; read-out: IC50s, growth inhibition across all cell lines evaluated
# Description: as §1, §2
# [5] = test system: activated human T-cell cultures; test: Cytotoxic and apoptotic activity in activated human T-cell cultures; format: cell-based
# Description: This observation was confirmed using normal (non-tumor) primary cells derived from animals, which are known to be free of tumors.
# [6] = test system: TNF; interleukins 1, 6, and 10; VEGF; TGF; test: Angiogenesis factors in patients with metastatic colon cancer; format: in vivo, human; settings: treated subjects compared to subjects receiving placebo
# Description: Patients with metastatic colon cancer were treated with taurolidine and several factors controlling angiogenesis were measured.
# [7] = test system: MDR-transfected glioblastoma cells; test: Cytotoxicity in MDR-transfected glioblastoma cells; settings: dose of 50 μM
# Description: The neoplastic cell lines used in the survey were standard tumor cell lines, e.g., PA1 human ovarian cell line, SKOV3 human ovarian cell line, HT29 human colon tumor cell line, DU145 human prostate tumor cell line, U251 human glioblastoma cell line, U251-MDR human glioblastoma cell line transfected with DNA encoding MDR, T98G human glioblastoma cell line, SP-1 human leukemia cell line, and Daudi human leukemia cell line.
# Glioblastoma cells were transfected with a gene encoding multiple drug resistance (MDR).
smiles,measurement,setting,value
"O=S1(=O)CCN(CN2CCS(=O)(=O)NC2)CN1 [Taurolidine, Bis-(1,1-dioxoperhydro-1,2,4-thiadiazinyl-4)methane]",IC50,PA-1 [1],~10 µM
same,cell cycle kinetics and distribution,"PA-1 [2]; PA1, 24-hour exposure",significantly reduced the percentage of cells in both the S- and G2/M-phases
same,effect on cell cycle distribution,"PA-1 [2]; PA-1, 48 h exposure, up to 100 μM",little effect on the cell cycle; also recorded: little effect on cell cycle distribution
same,DNA debris in the sub-G0/G1 region,"PA-1 [2]; PA-1, 48 h exposure, 25-100 μM",significantly increased DNA debris; also recorded: resulted in the appearance of DNA debris
same,increase in Annexin-V binding (Annexin-V positive cells),SKOV-3,3 fold
same,PARP cleavage,PARP,induced PARP cleavage; also recorded: resulted in PARP cleavage
same,ascites formation,[3]; 20 mg/mouse/injection i.p. x 3 d starting on the day of tumor cell injection,no evidence of ascites formation
same,tumor formation and growth,"[3]; 3 d 20 mg/mouse i.p. regimen, nude mice bearing i.p. human ovarian tumor xenografts",significant inhibition of both tumor formation and growth; also recorded: significantly inhibited tumor development and growth; also recorded: highly effective and inhibited tumor formation
same,tumor growth,[3]; single cycle initiated 5 d after tumor cell injection (established i.p. tumors),significantly inhibiting tumor growth
same,mean tumor size in treated mice vs controls,[3]; therapy delayed for up to 3 d after tumor cell injection,significantly smaller than in controls
same,IC50,[4],9.6 to 34.2 µM
same,induction of apoptosis,[5],did not produce cellular changes consistent with the induction of apoptosis
same,"factors controlling the growth of blood vessels (TNF; interleukins 1, 6, and 10; VEGF; TGF)",[6],found to be decreased
same,cytotoxicity,[7],Significant cytotoxicity

# From patent US6964959B2, “Use of a methylol-containing compound to treat tumors” (Carter Wallace, Inc., priority 1999, dated 2005)
